Laboratory results: patent US20180203025A1, “HDL THERAPY MARKERS” (Cerenis Therapeutics Holding SA, priority 2014, published 2018)

Experiments:
[1] = system: SREBP-1 mRNA in mouse macrophages (J774); experiment: SREBP-1 gene expression (real-time PCR) in J774 macrophages; format: cell-based; settings: 6 hours
Experimental: The mRNA regulation of those genes expressing ABCA1, ABCG1 and SR-BI is linked to nuclear proteins as LXR, SREBP1 and SREBP2. […] Gene expression was assayed using the protocols described in Sections 8.3.2 (RNA extraction); 8.3.4 (reverse transcription), and 8.3.5 (qPCR). SREBP-1, SREBP-2 and LXR gene expression levels were determined with Taqman probe (Mm01138344.m1, Mm01306292.m1, Mm00443451.m1 respectively) according to the manufacturer's protocol. The reference gene used is HPRT1 (Taqman probe: Mm00446968.m1).
J774 were seeded on 6 well plates (300,000 cells/well) and loaded with oxidized-LDL. […] Gene expression was assayed using the protocols described in Sections 8.3.2 (RNA extraction); 8.3.4 (reverse transcription), and 8.3.5 (qPCR). SR-BI gene (Taqman probe Mm00450234.m1), ABCG1 (Taqman probe Mm00437390.m1), SREBP1 (Taqman probe Mm01138344.m1) and ABCA1 (Taqman probe Mm00442646.m1) expression were determined according to the manufacturer's protocol. The reference gene used is HPRT1 (Taqman probe: Mm00446968.m1).
This study used β-cyclodextrin to examine the effect of β-cyclodextrin on LXR, SREBP1 and SREBP2 mRNA expression in J774 macrophages. J774 were seeded on 6 well plates (300,000 cells/well). β-cyclodextrin (0.03, 0.1, 0.3, 1, 3, 10 and 30 mM) was added for 6 hours on the macrophages and the RNA were extracted with the RiboPure™ kit according to the manufacturer's protocol. Gene expression was assayed using the protocols described in Sections 8.3.2 (RNA extraction); 8.3.4 (reverse transcription), and 8.3.5 (qPCR). SREBP-1, SREBP-2 and LXR gene expression were determined with Taqman probe (Mm01138344.m1, Mm01306292.m1, Mm00443451.m1 respectively) according to the manufacturer's protocol. The reference gene used is HPRT1 (Taqman probe: Mm00446968.m1).

[2] = system: SR-BI mRNA in mouse macrophages (J774); experiment: SR-BI gene expression (real-time PCR) in J774 macrophages; format: cell-based
Experimental: J774 were seeded on 6 well plates (300,000 cells/well) and loaded with oxidized-LDL without the use of 3H-cholesterol. […] Gene expression was assayed using the protocols described in Sections 8.3.2 (RNA extraction); 8.3.4 (reverse transcription), and 8.3.5 (qPCR). SR-BI gene expression was determined with Taqman probe Mm00450234.m1 according to the manufacturer's protocol. The reference gene used is HPRT1 (Taqman probe: Mm00446968.m1).
J774 were seeded on 6 well plates (300,000 cells/well) and loaded with oxidized-LDL. […] Gene expression was assayed using the protocols described in Sections 8.3.2 (RNA extraction); 8.3.4 (reverse transcription), and 8.3.5 (qPCR). SR-BI gene (Taqman probe Mm00450234.m1), ABCG1 (Taqman probe Mm00437390.m1), SREBP1 (Taqman probe Mm01138344.m1) and ABCA1 (Taqman probe Mm00442646.m1) expression were determined according to the manufacturer's protocol. […]
J774 were seeded on 6 well plates (600,000 cells/well) in DMEM 10% FCS. […] ABCG1 (Taqman probe Mm00437390.m1), ABCA1 (Taqman probe Mm00442646.m1) and SR-BI (Taqman probe Mm00450234.m1) expression were determined according to the manufacturer's protocol. […]
J774 were seeded on 6 well plates (300,000 cells/well) in DMEM 2.5% FCS. […] ABCA1 (Taqman probe Mm00442646.m1), ABCG1 (Taqman probe Mm00437390.m1), and SR-BI (Taqman probe Mm00450234.m1) expression were determined according to the manufacturer's protocol. […]

Row | Compound | SREBP-1 mRNA ([1]; Study P, 0.03 to 30 mM) | SR-BI mRNA level ([2]; Study O, 0.03 to 30 mM, 6 hours) | SREBP-1 gene expression ([1]; Study D, 25, 250 and 1000 μg/mL) | concentration above which SREBP1 decrease and plateau observed ([1]; Study E) | SR-BI mRNA level ([2]; Study J, 24 hours treatment, 250 μg/mL)
1 | OC[C@H]1O[C@@H]2O[C@H]3[C@H](O)[C@@H](O)[C@@H](O[C@H]4[C@H](O)[C@@H](O)[C@@H](O[C@H]5[C@H](O)[C@@H](O)[C@@H](O[C@H]6[C@H](O)[C@@H](O)[C@@H](O[C@H]7[C@H](O)[C@@H](O)[C@@H](O[C@H]8[C@H](O)[C@@H](O)[C@@H](O[C@H]1[C@H](O)[C@H]2O)O[C@@H]8CO)O[C@@H]7CO)O[C@@H]6CO)O[C@@H]5CO)O[C@@H]4CO)O[C@@H]3CO [β-cyclodextrin, reference compound] | dose-dependent decrease | dose-dependent increase | – | – | –
2 | CER-001: engineered recombinant human apolipoprotein A-I HDL with sphingomyelin and DPPG; protein-to-phospholipid ratio 1:2.7, 97% Sph and 3% DPPG | – | – | affected SREBP-1 mRNA levels | above 2.5 μg/mL | do not change the mRNA level of SR-BI
